Test results published in patent publication US6214537A, “Synthetic peptides and mixtures thereof for detecting HIV antibodies” (Biochem Immunosystems, Inc., priority 1988, dated 2001).
Positions of bridges follow the written chain, without caps; N, C: chain ends. Residues, ends and D or L forms follow the SMILES beside them. No end group written: not given here.

Tests used:
[1] = test system: HIV-1 antibodies; test: ELISA, single peptides identifying HIV-1 positive sera; type: binding, human
Protocol: According to this test a peptide or a peptide mixture of the present invention is adsorbed onto the wells of a microtiter plate. The wells are then treated with sera to be tested. After washing, anti-human IgG labeled with peroxidase is added to the wells. The determination of the peroxidase is performed with a corresponding substrate, e.g. with o-phenylene diamine. Also in this procedure the peroxidase can be exchanged by another label, e.g. by a radioactive or fluorescence label.
(§1) Each well of the microtiter plate is saturated with 100 μl of a solution containing a peptide or mixture of peptides (5 μg/ml) and left overnight. The wells are emptied and washed twice with a washing buffer (Tris, 0.043M; NaCl, 0.5M;thimerosal, 0.01% w/v; Tween 20, 0.05% v/v; pH 7.4). The wells are then saturated with 0.35 ml of washing buffer for 1 hr. at 37° C. and washed once with the same buffer. Serum samples to be analyzed are diluted with specimen buffer (washing buffer plus casein, 0.05% w/v). The wells are rinsed with washing buffer prior to the addition of the diluted serum sample (0.1 ml). These are left to incubate for 1 hr. at room temperature. The wells are then emptied, washed twice rapidly and then once for two minutes with washing buffer. […] The wells are then emptied and washed twice rapidly with washing buffer and then five times in which the buffer was in contact with the well 2 minutes per washing.
(§2) The substrate solution (3,3', 5,5'-tetramethylbenzidine, 8 mg per ml of DMSO) is diluted with 100 volumes 0.1M citrate-acetate buffer, pH 5.6 containing 0.1% v/v of 30% H2 O2 and added to each well (0.1 ml per well). After 10 minutes the contents of each well is treated with 0.1 ml 2N H2 SO4 and the optical density read at 450 nm. All determinations are done in duplicate.

[2] = test system: HIV-1-antibodies; test: ELISA, cyclic versus non-cyclic peptides, sera at various dilutions; type: binding, human
Protocol: TABLE 5 is provided to illustrate the sensitivity of cyclic versus noncyclic peptides in the ELISA test by comparing the results of some sera at various dilutions.
Plates used in this experiment were coated with solutions of peptides at 10 μg/ml. (Experimental results of TABLE 5 were obtained with plates coated with peptides at 0,5 μg/ml). Four different HIV-1 positive serum samples were serially diluted and their titers determined. The titer was defined as the serum dilution giving an absorbancy reading of 1:0 in the conditions of the ELISA procedure already described.
as §1, §2

Molecule: CC[C@H](C)[C@@H]1NC(=O)[C@H](CC(C)C)NC(=O)[C@H](CCCCN)NC(=O)CNC(=O)[C@H](CO)NC(=O)[C@@H](NC(=O)CN)CSSC[C@@H](C(=O)N[C@H](C(=O)N[C@H](C(=O)N[C@@H](C)C(=O)N[C@H](C(=O)N2CCC[C@H]2C(=O)N[C@@H](Cc2c[nH]c3ccccc23)C(=O)N[C@@H](CC(N)=O)C(=O)N[C@@H](C)C(=O)N[C@@H](CO)C(=O)O)C(C)C)[C@@H](C)O)[C@@H](C)O)NC1=O [Peptide 80] (H-GCSGKLICTTAVPWNAS-OH; disulfide 2-8)
- % Positive Sera correctly Identified ([1]; ELISA, single peptide): 100%
- ELISA optical density ([2]; serum 87V103, dilution 1/50): 0.003 optical density units
- ELISA optical density ([2]; serum 1428, dilution 1/50): 1.047 optical density units
- ELISA optical density ([2]; serum M-5, dilution 1/50): 2.104 optical density units
- ELISA optical density ([2]; serum M-5, dilution 1/100): 1.881 optical density units
- ELISA optical density ([2]; serum M-5, dilution 1/200): 1.599 optical density units
- ELISA optical density ([2]; serum M-5, dilution 1/800): 0.767 optical density units
- ELISA optical density ([2]; serum M-7, dilution 1/50): 0.191 optical density units
- ELISA optical density ([2]; serum M-7, dilution 1/100): 0.067 optical density units
- ELISA optical density ([2]; serum M-7, dilution 1/200): 0.019 optical density units
- ELISA optical density ([2]; serum M-7, dilution 1/400): 0.010 optical density units
- ELISA optical density ([2]; serum M-7, dilution 1/800): 0.005 optical density units
- ELISA optical density ([2]; serum M-8, dilution 1/50): 1.026 optical density units
- ELISA optical density ([2]; serum M-8, dilution 1/100): 0.737 optical density units
- ELISA optical density ([2]; serum M-8, dilution 1/200): 0.520 optical density units
- ELISA optical density ([2]; serum M-8, dilution 1/400): 0.340 optical density units
- ELISA optical density ([2]; serum M-8, dilution 1/800): 0.159 optical density units
- ELISA optical density ([2]; serum M-16, dilution 1/50): 1.601 optical density units
- ELISA optical density ([2]; serum M-16, dilution 1/100): 1.300 optical density units
- ELISA optical density ([2]; serum M-16, dilution 1/200): 0.903 optical density units
- ELISA optical density ([2]; serum M-16, dilution 1/400): 0.583 optical density units
- ELISA optical density ([2]; serum M-16, dilution 1/800): 0.329 optical density units

Molecule: CC[C@H](C)[C@H](NC(=O)CNC(=O)[C@H](CC(C)C)NC(=O)[C@H](CC(C)C)NC(=O)[C@H](CCC(N)=O)NC(=O)[C@H](CCC(N)=O)NC(=O)[C@H](CC(=O)O)NC(=O)[C@H](CCCCN)NC(=O)[C@H](CC(C)C)NC(=O)[C@H](Cc1ccc(O)cc1)NC(=O)[C@H](CCCNC(=N)N)NC(=O)[C@H](CCC(=O)O)NC(=O)[C@@H](N)C(C)C)C(=O)N[C@@H](Cc1c[nH]c2ccccc12)C(=O)NCC(=O)N[C@H]1CSSC[C@@H](C(=O)N[C@H](C(=O)N[C@H](C(=O)N[C@@H](C)C(=O)N[C@H](C(=O)N2CCC[C@H]2C(=O)N[C@@H](Cc2c[nH]c3ccccc23)C(=O)N[C@@H](CC(N)=O)C(=O)N[C@@H](C)C(=O)N[C@@H](CO)C(=O)O)C(C)C)[C@@H](C)O)[C@@H](C)O)NC(=O)[C@H]([C@@H](C)CC)NC(=O)[C@H](CC(C)C)NC(=O)[C@H](CCCCN)NC(=O)CNC(=O)[C@H](CO)NC1=O [Peptide 88] (H-VERYLKDQQLLGIWGCSGKLICTTAVPWNAS-OH; disulfide 16-22)
- % Positive Sera correctly Identified ([1]; ELISA, single peptide): 100%

Molecule: CC[C@H](C)[C@H](NC(=O)[C@H](CCC(N)=O)NC(=O)[C@H](CCC(=O)O)NC(=O)[C@H](CC(C)C)NC(=O)[C@H](CO)NC(=O)[C@H](CCCCN)NC(=O)[C@H](CC(N)=O)NC(=O)[C@H](CO)NC(=O)[C@H](Cc1c[nH]c2ccccc12)NC(=O)[C@H](CO)NC(=O)[C@H](C)NC(=O)[C@H](CC(N)=O)NC(=O)[C@H](Cc1c[nH]c2ccccc12)NC(=O)[C@@H]1CCCN1C(=O)[C@@H](NC(=O)[C@H](C)NC(=O)[C@@H](NC(=O)[C@@H](NC(=O)[C@@H]1CSSC[C@H](NC(=O)CN)C(=O)N[C@@H](CO)C(=O)NCC(=O)N[C@@H](CCCCN)C(=O)N[C@@H](CC(C)C)C(=O)N[C@@H]([C@@H](C)CC)C(=O)N1)[C@@H](C)O)[C@@H](C)O)C(C)C)C(=O)O [Peptide 96] (H-GCSGKLICTTAVPWNASWSNKSLEQI-OH; disulfide 2-8)
- % Positive Sera correctly Identified ([1]; ELISA, single peptide): 100%

Molecule: CGKIEPLGVAPTKAKRRVVQREKR [Peptide 71]
- % Positive Sera correctly Identified ([1]; ELISA, single peptide): 83%

Molecule: CGNNPPIPVGE [Peptide 41, NH2 -CGNNPPIPVGE-COOH]
- % Positive Sera correctly Identified ([1]; peptide Free): 63%
- % Positive Sera correctly Identified ([1]; peptide coupled): 73%

Molecule: CGRAEQASQEVKN [Peptide 46, NH2 -CGRAEQASQEVKN-COOH]
- % Positive Sera correctly Identified ([1]; peptide Free): 0%
- % Positive Sera correctly Identified ([1]; peptide coupled): 93%

Molecule: GHACVPTDPNPQEVVL [Peptide 14]
- % Positive Sera correctly Identified ([1]; ELISA, single peptide): 50%

Molecule: NH2 -CGLGIWGCSGKLICTTAVPWNASWSNKSLEQI-COOH [Peptide 98]
- % Positive Sera correctly Identified ([1]; ELISA, single peptide): 100%

Molecule: NH2 -CGVERYLKQQLLGIWGCSGKLICTTAVPWNASWSNKSLEQI-COOH [Peptide 99]
- % Positive Sera correctly Identified ([1]; ELISA, single peptide): 100%

Molecule: NH2 -CGYLKDQQLLGIWGCSGKLICTTAVPWNASWSNKSLEQI-COOH [Peptide 97]
- % Positive Sera correctly Identified ([1]; ELISA, single peptide): 100%

Molecule: NH2 -FAFAFGCSGKLICTTAVPWNASWSNKSLEQI-COOH [Peptide 91]
- % Positive Sera correctly Identified ([1]; ELISA, single peptide): 94%

Molecule: NH2 -GCSGKLICTTAVPWNAS-COOH (H-GCSGKLICTTAVPWNAS-OH; cysteine pairing not given here) [Peptide 77, linear peptide, gp41 604-620]
- % Positive Sera correctly Identified ([1]; ELISA, single peptide): 100%
- ELISA optical density ([2]; serum 87V103, dilution 1/50): 0.000 optical density units
- ELISA optical density ([2]; serum 1428, dilution 1/50): 0.926 optical density units
- ELISA optical density ([2]; serum M-5, dilution 1/50): 1.719 optical density units
- ELISA optical density ([2]; serum M-5, dilution 1/100): 1.459 optical density units
- ELISA optical density ([2]; serum M-5, dilution 1/200): 1.248 optical density units
- ELISA optical density ([2]; serum M-5, dilution 1/400): 0.959 optical density units
- ELISA optical density ([2]; serum M-5, dilution 1/800): 0.057 optical density units
- ELISA optical density ([2]; serum M-7, dilution 1/50): 0.142 optical density units
- ELISA optical density ([2]; serum M-7, dilution 1/100): 0.025 optical density units
- ELISA optical density ([2]; serum M-7, dilution 1/200): 0.007 optical density units
- ELISA optical density ([2]; serum M-7, dilution 1/400): 0.001 optical density units
- ELISA optical density ([2]; serum M-7, dilution 1/800): 0.000 optical density units
- ELISA optical density ([2]; serum M-8, dilution 1/50): 0.795 optical density units
- ELISA optical density ([2]; serum M-8, dilution 1/100): 0.507 optical density units
- ELISA optical density ([2]; serum M-8, dilution 1/200): 0.376 optical density units
- ELISA optical density ([2]; serum M-8, dilution 1/400): 0.209 optical density units
- ELISA optical density ([2]; serum M-8, dilution 1/800): 0.062 optical density units
- ELISA optical density ([2]; serum M-16, dilution 1/50): 1.219 optical density units
- ELISA optical density ([2]; serum M-16, dilution 1/100): 0.962 optical density units
- ELISA optical density ([2]; serum M-16, dilution 1/200): 0.613 optical density units
- ELISA optical density ([2]; serum M-16, dilution 1/400): 0.301 optical density units
- ELISA optical density ([2]; serum M-16, dilution 1/800): 0.205 optical density units

Molecule: NH2 -GCSGKLICTTAVPWNASWSWSNKSLEQI-COOH [Peptide 95]
- % Positive Sera correctly Identified ([1]; ELISA, single peptide): 100%

Molecule: NH2 -IWGCSGKLICTTAVPWNAS-COOH (H-IWGCSGKLICTTAVPWNAS-OH; cysteine pairing not given here) [Peptide 78, linear peptide, gp41 602-620]
- % Positive Sera correctly Identified ([1]; ELISA, single peptide): 100%

Molecule: NH2 -SGKLICTTAVPWNASWSNKSLEQGC-COOH [Peptide 56]
- % Positive Sera correctly Identified ([1]; ELISA, single peptide): 100%

Molecule: NH2 -VERYLKDQQLLGIWGCSGKLICTTAVPWNAS-COOH (H-VERYLKDQQLLGIWGCSGKLICTTAVPWNAS-OH; cysteine pairing not given here) [Peptide 81, linear peptide, gp41 590-620]
- % Positive Sera correctly Identified ([1]; ELISA, single peptide): 100%

Molecule: TTAVPWNASWSNKSLEQGC [Peptide 42]
- % Positive Sera correctly Identified ([1]; ELISA, single peptide): 5%
